Data: ChEMBL document CHEMBL3867456, “Vetiverianines A, B, and C: Sesquiterpenoids from Vetiveria zizanioides Roots” (J Nat Prod, 2016)

Experiment: Cytotoxicity against human HL60 cells assessed as cell growth inhibition after 72 hrs by MTT assay
Type: functional, cell-based
Settings: HL-60, 72 h

| Compound | IC50 [µM] |
| --- | --- |
| COc1cc([C@@H]2c3cc4c(cc3[C@@H](O[C@@H]3O[C@@H]5CO[C@@H](C)O[C@H]5[C@H](O)[C@H]3O)[C@H]3COC(=O)[C@H]23)OCO4)cc(OC)c1O [ETOPOSIDE] | 0.3 |
| C[C@@H]1CCC=C2CC[C@]3(C[C@]21C)O[C@]3(C)CO | 57.7 |
